Values quoted from earlier work, collected in patent publication US8097602B1, “Method of treating body insect infestation” (Host Pharmaceuticals, LLC, priority 2008, dated 2012).

Settings: at 20° C.

| Substance | Surface Tension (dynes/cm) |
| --- | --- |
| n-alkanes | 37.8^1 dynes/cm |
| n-fluoroalkanes | 25.9^1 dynes/cm |
